The supplement of paper PMC10307832

compound: N#CC1(c2ccc(NC(=O)c3cccnc3NCc3ccncc3)cc2)CCCC1 [Apatinib] + NC(=O)Nc1cc(-c2cccc(F)c2)sc1C(=O)N[C@H]1CCCNC1 [AZD7762] (partner 0.2 µM); test: relative viability (nuclei count vs DMSO), 5 days (fraction); higher = more cells survive; conditions: first compound 0.08 µM
Procedure, shortened: (§1)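 Relative viability is defined as nuclei in treated wells over nuclei in vehicle wells. Duplicate plates were run and medians reported. Lung cancer cell lines in 1536-well plates were dosed by pin tool one day after seeding, with one drug or with a fixed anchor-drug dose plus five library-drug doses (not always all listed) in √10 steps, and nuclei were counted after 5 days.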

| Cell Line | relative viability |
| --- | --- |
| NCI-H2405 | 0.773 |
| NCI-H3122 | 0.983 |
| PC-14 | 0.359 |
| RERF-LC-KJ | 0.844 |

same assay, conditions: first compound 0.253 µM

| Cell Line | relative viability |
| --- | --- |
| NCI-H2405 | 0.859 |
| NCI-H3122 | 0.988 |
| PC-3 [JPC-3] | 0.745 |
| PC-14 | 0.348 |
| RERF-LC-KJ | 1.02 |

same assay, conditions: first compound 0.8 µM

| Cell Line | relative viability |
| --- | --- |
| NCI-H2405 | 0.713 |
| NCI-H3122 | 1.02 |
| PC-3 [JPC-3] | 0.672 |
| PC-14 | 0.258 |
| RERF-LC-KJ | 1.04 |

same assay, conditions: first compound 2.53 µM

| Cell Line | relative viability |
| --- | --- |
| NCI-H2405 | 0.55 |
| NCI-H3122 | 0.946 |
| PC-3 [JPC-3] | 0.63 |
| PC-14 | 0.167 |
| RERF-LC-KJ | 0.779 |

same assay, conditions: first compound 8 µM

| Cell Line | relative viability |
| --- | --- |
| NCI-H2405 | 0.609 |
| NCI-H3122 | 0.933 |
| PC-3 [JPC-3] | 0.688 |
| PC-14 | 0.267 |
| RERF-LC-KJ | 0.759 |

compound: CN(C)C(=N)NC(=N)N [Metformin] + O=C(c1cc(Cc2n[nH]c(=O)c3ccccc23)ccc1F)N1CCN(C(=O)C2CC2)CC1 [Olaparib] (partner 8 µM); test: as above; conditions: first compound 10 µM
Procedure, shortened: as §1

| Cell Line | relative viability |
| --- | --- |
| NCI-H3122 | 0.442 |
| PC-3 [JPC-3] | 0.95 |
| PC-14 | 0.233 |
| RERF-LC-KJ | 0.651 |

same assay, conditions: first compound 31.62 µM

| Cell Line | relative viability |
| --- | --- |
| NCI-H2405 | 0.905 |
| NCI-H3122 | 0.555 |
| PC-3 [JPC-3] | 0.932 |
| PC-14 | 0.247 |
| RERF-LC-KJ | 0.715 |

same assay, conditions: first compound 100 µM

| Cell Line | relative viability |
| --- | --- |
| NCI-H2405 | 0.813 |
| NCI-H3122 | 0.587 |
| PC-14 | 0.259 |
| RERF-LC-KJ | 0.757 |

same assay, conditions: first compound 316.23 µM

| Cell Line | relative viability |
| --- | --- |
| NCI-H2405 | 0.635 |
| NCI-H3122 | 0.54 |
| PC-3 [JPC-3] | 0.741 |
| PC-14 | 0.225 |
| RERF-LC-KJ | 0.625 |

same assay, conditions: first compound 1000 µM

| Cell Line | relative viability |
| --- | --- |
| NCI-H2405 | 0.506 |
| NCI-H3122 | 0.507 |
| PC-3 [JPC-3] | 0.69 |
| PC-14 | 0.222 |
| RERF-LC-KJ | 0.63 |

compound: N#CC1(c2ccc(NC(=O)c3cccnc3NCc3ccncc3)cc2)CCCC1 [Apatinib] + Nc1ncn([C@H]2C[C@H](O)[C@@H](CO)O2)c(=O)n1 [Decitabine] (partner 2 µM); test: as above; conditions: first compound 0.08 µM
Procedure, shortened: as §1

| Cell Line | relative viability |
| --- | --- |
| NCI-H2405 | 0.83 |
| NCI-H3122 | 0.505 |
| PC-14 | 0.28 |
| RERF-LC-KJ | 0.755 |

same assay, conditions: first compound 0.253 µM

| Cell Line | relative viability |
| --- | --- |
| NCI-H2405 | 0.854 |
| NCI-H3122 | 0.431 |
| PC-3 [JPC-3] | 0.869 |
| PC-14 | 0.293 |
| RERF-LC-KJ | 0.7 |

same assay, conditions: first compound 0.8 µM

| Cell Line | relative viability |
| --- | --- |
| NCI-H2405 | 0.711 |
| NCI-H3122 | 0.44 |
| PC-3 [JPC-3] | 0.763 |
| PC-14 | 0.189 |
| RERF-LC-KJ | 0.637 |

same assay, conditions: first compound 2.53 µM

| Cell Line | relative viability |
| --- | --- |
| NCI-H2405 | 0.712 |
| NCI-H3122 | 0.495 |
| PC-3 [JPC-3] | 0.908 |
| PC-14 | 0.228 |
| RERF-LC-KJ | 0.66 |

same assay, conditions: first compound 8 µM

| Cell Line | relative viability |
| --- | --- |
| NCI-H2405 | 0.776 |
| NCI-H3122 | 0.433 |
| PC-3 [JPC-3] | 1.04 |
| PC-14 | 0.28 |
| RERF-LC-KJ | 0.746 |

compound: N#CC1(c2ccc(NC(=O)c3cccnc3NCc3ccncc3)cc2)CCCC1 [Apatinib] + CS(=O)(=O)N1CCN(Cc2cc3nc(-c4cccc5[nH]ncc45)nc(N4CCOCC4)c3s2)CC1 [Pictilisib] (partner 1 µM); test: as above; conditions: first compound 0.08 µM
Procedure, shortened: as §1

| Cell Line | relative viability |
| --- | --- |
| NCI-H2405 | 0.343 |
| NCI-H3122 | 0.679 |
| PC-3 [JPC-3] | 0.781 |
| PC-14 | 0.708 |
| RERF-LC-KJ | 0.591 |

same assay, conditions: first compound 0.253 µM

| Cell Line | relative viability |
| --- | --- |
| NCI-H2405 | 0.458 |
| NCI-H3122 | 0.538 |
| PC-3 [JPC-3] | 0.741 |
| PC-14 | 0.837 |
| RERF-LC-KJ | 0.701 |

same assay, conditions: first compound 0.8 µM

| Cell Line | relative viability |
| --- | --- |
| NCI-H2405 | 0.439 |
| NCI-H3122 | 0.684 |
| PC-3 [JPC-3] | 0.594 |
| PC-14 | 0.39 |
| RERF-LC-KJ | 0.438 |

same assay, conditions: first compound 2.53 µM

| Cell Line | relative viability |
| --- | --- |
| NCI-H2405 | 0.402 |
| NCI-H3122 | 0.731 |
| PC-3 [JPC-3] | 0.605 |
| PC-14 | 0.547 |
| RERF-LC-KJ | 0.469 |

same assay, conditions: first compound 8 µM

| Cell Line | relative viability |
| --- | --- |
| NCI-H2405 | 0.35 |
| NCI-H3122 | 0.701 |
| PC-3 [JPC-3] | 0.683 |
| PC-14 | 0.55 |
| RERF-LC-KJ | 0.462 |
